In ChEMBL document CHEMBL1201862, “PubChem BioAssay data set” (2004):
Calls of active or inactive are those of the source.

How the values were obtained:
[1] = biological target: T1, Heat shock factor protein 1 (Mus musculus, UniProt P38532); assay: decrease of HSF1-responsive luciferase luminescence – cell-based, NIH3T3, dose retest, confirmation (AID 2382); assay type: functional;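 also: NIH3T3 fibroblasts with HSF1-driven luciferase reporter stressed by proteasome inhibitor MG132; luminescence from HSF1-driven luciferase expression after 8 hours of MG132 stress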
T1 sequence (P38532 whole entry): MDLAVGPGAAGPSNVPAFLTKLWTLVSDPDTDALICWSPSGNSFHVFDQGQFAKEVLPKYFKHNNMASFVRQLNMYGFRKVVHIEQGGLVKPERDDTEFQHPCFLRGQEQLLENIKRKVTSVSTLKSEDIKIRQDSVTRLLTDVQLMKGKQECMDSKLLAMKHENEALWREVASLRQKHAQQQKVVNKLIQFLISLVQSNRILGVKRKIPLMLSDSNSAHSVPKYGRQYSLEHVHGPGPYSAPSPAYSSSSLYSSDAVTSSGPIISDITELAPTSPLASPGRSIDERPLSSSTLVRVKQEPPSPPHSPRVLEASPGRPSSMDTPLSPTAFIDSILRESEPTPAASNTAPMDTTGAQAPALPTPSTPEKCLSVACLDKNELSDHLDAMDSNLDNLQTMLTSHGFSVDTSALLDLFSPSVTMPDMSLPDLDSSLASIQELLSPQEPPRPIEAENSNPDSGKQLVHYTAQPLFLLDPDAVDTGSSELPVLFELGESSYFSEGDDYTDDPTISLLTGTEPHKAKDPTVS

[2] = biological target: Cytochrome P450 2C9 (Homo sapiens, UniProt P11712)
Cytochrome P450 2C9, sequence (P11712 whole entry): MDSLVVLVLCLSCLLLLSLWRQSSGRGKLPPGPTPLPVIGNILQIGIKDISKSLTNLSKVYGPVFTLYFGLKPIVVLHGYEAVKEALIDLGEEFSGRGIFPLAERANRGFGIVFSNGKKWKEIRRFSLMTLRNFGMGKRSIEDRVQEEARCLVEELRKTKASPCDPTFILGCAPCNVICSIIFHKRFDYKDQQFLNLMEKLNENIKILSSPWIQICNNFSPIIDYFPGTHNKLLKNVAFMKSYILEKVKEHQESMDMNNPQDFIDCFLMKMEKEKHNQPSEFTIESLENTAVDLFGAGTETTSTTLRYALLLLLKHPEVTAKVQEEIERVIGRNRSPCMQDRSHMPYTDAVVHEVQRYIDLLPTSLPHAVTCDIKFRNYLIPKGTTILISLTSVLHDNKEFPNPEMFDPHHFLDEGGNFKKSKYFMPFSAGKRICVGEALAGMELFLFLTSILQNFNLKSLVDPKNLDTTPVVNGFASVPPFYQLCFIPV

[3] = biological target: T2, Cytochrome P450 1A2 (Homo sapiens, UniProt P05177);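 also: PubChem cytochrome P450 panel assay, CYP1A2 panel member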
T2 sequence (P05177 whole entry): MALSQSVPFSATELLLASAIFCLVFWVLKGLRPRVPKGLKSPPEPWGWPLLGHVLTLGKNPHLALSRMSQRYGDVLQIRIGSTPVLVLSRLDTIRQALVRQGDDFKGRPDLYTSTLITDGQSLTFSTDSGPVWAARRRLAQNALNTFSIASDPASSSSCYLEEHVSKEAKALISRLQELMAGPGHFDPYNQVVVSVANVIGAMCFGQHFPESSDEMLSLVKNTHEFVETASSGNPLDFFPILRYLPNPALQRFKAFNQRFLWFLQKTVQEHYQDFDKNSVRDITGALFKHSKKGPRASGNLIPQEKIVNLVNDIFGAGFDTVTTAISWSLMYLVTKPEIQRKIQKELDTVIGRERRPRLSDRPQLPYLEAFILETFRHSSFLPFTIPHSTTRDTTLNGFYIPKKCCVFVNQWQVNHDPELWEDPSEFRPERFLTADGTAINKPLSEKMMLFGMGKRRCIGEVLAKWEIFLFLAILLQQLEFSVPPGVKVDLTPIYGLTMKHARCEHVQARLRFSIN

[4] = biological target: Cytochrome P450 2D6 (Homo sapiens, UniProt P10635)
Cytochrome P450 2D6, sequence (P10635 whole entry): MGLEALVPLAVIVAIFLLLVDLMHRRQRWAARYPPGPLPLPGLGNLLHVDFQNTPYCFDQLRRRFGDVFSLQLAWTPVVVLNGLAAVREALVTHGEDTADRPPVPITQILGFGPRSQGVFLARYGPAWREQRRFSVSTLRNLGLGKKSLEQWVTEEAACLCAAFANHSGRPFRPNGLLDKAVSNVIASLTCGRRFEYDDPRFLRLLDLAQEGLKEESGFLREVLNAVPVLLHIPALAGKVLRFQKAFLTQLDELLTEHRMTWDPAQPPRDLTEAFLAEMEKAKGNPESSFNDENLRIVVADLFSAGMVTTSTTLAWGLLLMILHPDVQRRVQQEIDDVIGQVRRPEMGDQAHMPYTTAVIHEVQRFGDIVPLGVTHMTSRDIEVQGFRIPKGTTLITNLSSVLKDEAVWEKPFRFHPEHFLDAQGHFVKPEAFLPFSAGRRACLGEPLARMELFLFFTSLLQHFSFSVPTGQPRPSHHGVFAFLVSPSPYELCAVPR

[5] = Luminescence Cell-Based Dose Retest to Confirm Inhibitors of Cancer Stem Cells. [Related pubchem assays (depositor defined):AID2717, AID2721]; assay type: functional; settings: Homo sapiens
[6] = biological target: Cytochrome P450 2C19 (Homo sapiens, UniProt P33261); assay: Cytochrome panel assay with activity outcomes. Panel member name: p450-cyp2c19 Compounds with AC50 equal or less than 10 uM are considered active; assay type: functional; settings: read-out: AC50
Cytochrome P450 2C19, sequence (P33261 whole entry): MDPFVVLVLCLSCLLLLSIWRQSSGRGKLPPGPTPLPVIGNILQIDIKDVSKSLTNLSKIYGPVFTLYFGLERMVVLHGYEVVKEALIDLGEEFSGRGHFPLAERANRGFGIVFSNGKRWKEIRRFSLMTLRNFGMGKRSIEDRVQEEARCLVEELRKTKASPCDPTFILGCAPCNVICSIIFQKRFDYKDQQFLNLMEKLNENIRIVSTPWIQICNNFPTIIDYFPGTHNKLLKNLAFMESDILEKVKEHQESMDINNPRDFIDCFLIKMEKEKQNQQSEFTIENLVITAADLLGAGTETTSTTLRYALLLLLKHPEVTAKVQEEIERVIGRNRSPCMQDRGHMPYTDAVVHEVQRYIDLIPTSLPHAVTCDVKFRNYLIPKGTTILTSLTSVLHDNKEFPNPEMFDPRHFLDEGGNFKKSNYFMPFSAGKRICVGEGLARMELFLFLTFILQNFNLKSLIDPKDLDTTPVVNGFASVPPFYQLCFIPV

[7] = biological target: Cytochrome P450 3A4 (Homo sapiens, UniProt P08684);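 also: CYP3A4 tested as one member of a cytochrome P450 panel screen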
Cytochrome P450 3A4, sequence (P08684 whole entry): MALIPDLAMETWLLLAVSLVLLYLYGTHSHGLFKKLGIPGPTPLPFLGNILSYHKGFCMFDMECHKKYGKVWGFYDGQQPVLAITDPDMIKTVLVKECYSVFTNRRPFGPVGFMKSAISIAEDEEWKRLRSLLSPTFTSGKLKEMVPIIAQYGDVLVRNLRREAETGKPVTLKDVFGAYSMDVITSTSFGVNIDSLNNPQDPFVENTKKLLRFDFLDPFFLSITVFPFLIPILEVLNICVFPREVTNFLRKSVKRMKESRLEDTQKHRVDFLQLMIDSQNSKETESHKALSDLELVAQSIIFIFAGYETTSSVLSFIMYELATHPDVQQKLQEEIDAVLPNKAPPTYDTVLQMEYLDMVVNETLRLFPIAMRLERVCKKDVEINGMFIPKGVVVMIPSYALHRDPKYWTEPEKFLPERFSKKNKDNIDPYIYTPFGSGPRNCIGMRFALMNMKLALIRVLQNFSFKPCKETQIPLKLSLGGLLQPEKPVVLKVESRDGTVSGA

[8] = cells; assay type: functional
[9] = test system: INS1; assay: INS-1E survival protection against cytokine death – cell-based, luminescence, retest, dose response (AID 449756); assay type: functional; settings: Rattus norvegicus;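 also: cell death triggered by IL-1 beta plus TNF-alpha plus IFN-gamma mixture; protective hits raise ATP signal compared with cytokine alone wells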
[10] = biological target: T3, Rac GTPase-activating protein 1 (Homo sapiens, UniProt Q9H0H5); assay: blockers of MgcRacGAP-driven Rac1 GTP hydrolysis – biochemical, ADP Hunter fluorescence, primary and confirmatory, confirmation (AID 624330); assay type: functional
T3 sequence (Q9H0H5 whole entry): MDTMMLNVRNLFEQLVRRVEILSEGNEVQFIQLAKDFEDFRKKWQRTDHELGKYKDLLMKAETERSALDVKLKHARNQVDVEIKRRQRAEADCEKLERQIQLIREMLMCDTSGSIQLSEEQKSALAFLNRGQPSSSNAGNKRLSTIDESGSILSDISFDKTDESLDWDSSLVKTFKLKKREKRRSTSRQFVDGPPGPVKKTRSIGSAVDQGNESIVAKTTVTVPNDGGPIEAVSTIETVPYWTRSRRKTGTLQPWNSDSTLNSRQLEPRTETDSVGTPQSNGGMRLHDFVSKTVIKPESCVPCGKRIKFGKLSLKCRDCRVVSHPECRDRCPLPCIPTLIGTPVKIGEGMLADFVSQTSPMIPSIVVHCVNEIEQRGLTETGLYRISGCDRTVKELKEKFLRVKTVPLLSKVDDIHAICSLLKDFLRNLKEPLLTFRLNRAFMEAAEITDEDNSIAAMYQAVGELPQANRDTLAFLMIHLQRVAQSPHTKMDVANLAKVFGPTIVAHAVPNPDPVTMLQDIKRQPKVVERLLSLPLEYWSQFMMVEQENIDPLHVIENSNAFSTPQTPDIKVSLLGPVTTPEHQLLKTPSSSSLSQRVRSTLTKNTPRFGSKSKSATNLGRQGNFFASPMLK

CS(=O)(=O)N(CC(=O)NCc1ccccc1)C1CCCCC1
EC50 [1]: > 195 µM (not active)

O=C1CCC(=O)N1CNc1ccccn1
EC50 [1]: > 195 µM (not active)

CCOC(=O)c1c(NC(=O)CNC2CCCc3ccccc32)sc(C(N)=O)c1C (centres undefined)
EC50 [1]: 25 µM (active)

Cc1noc(C)c1CS(=O)(=O)c1ccc(Br)cc1
AC50 [2]: 31.6 µM (inconclusive)

O=C(NCc1ccc2c(c1)OCO2)c1cc2c(s1)CS(=O)(=O)C2
EC50 [1]: > 195 µM (not active)

CCCCOc1ccc(N2CC(C(=O)NCCc3ccc(OC)c(OC)c3)CC2=O)cc1 (centres undefined)
EC50 [1]: > 195 µM (not active)

CCOc1ccc(-n2ccnc2SCC(=O)Nc2nnc(CC)s2)cc1
AC50 [3]: 20 µM (inconclusive)

CCNC(=O)NC(=O)CSc1nc2ccccc2n1CC(C)C
AC50 [4]: 14.1 µM (inconclusive)
AC50 [2]: 20 µM (inconclusive)

c1csc(CN2CCCC3(CCNCC3)C2)n1
AC50 [2]: 31.6 µM (inconclusive)

CCC1C=CC=CC[C@H](C)[C@@H](O)[C@](C)(O)C(=O)[C@@H](C)[C@H](O)[C@@H](C)C(=O)[C@H](C)[C@@H](O)[C@H](C)C=CC(=O)OC2[C@@H](C)C(CC1)OC1(CC[C@@H](C)C(C[C@H](C)O)O1)[C@@H]2C (some centres undefined)
AC50 [5]: 2.9 µM (active)

CCc1cccc(NC(=O)COC(=O)/C=C/c2cccs2)c1
EC50 [1]: > 195 µM (not active)

NCCc1c[nH]c2ccc(OC(=O)C(=O)O)cc12
AC50 [6]: 1.58 µM (inconclusive)
AC50 [2]: 3.98 µM (inconclusive)

COc1cc2c(cc1OC)C(C(=O)Nc1cccc(C)n1)C(c1cccnc1)N(C)C2=O (centres undefined)
AC50 [7]: 15.8 µM (inconclusive)
AC50 [2]: 0.00562 µM (inconclusive)

CCCCN=C(NNc1ccc(Br)cc1)C(=O)OCC
AC50 [5]: 2.89 µM (active)

CCOC(=O)c1nn(-c2ccccc2)c2nc(Nc3ccccc3)cc(=O)n12
IC50 [8]: 5.99 µM (active)

COCCNC(=O)c1ccc2c(c1)ncn2-c1ccc(F)c(F)c1
AC50 [6]: 28.2 µM (inconclusive)
AC50 [2]: 17.8 µM (inconclusive)

CCOC(=O)c1sc(C)c(C(=O)NCC(C)(C)CN(C)C)c1N
AC50 [2]: 39.8 µM (inconclusive)

COc1ncc2nc(CCc3ccccc3)c(=O)n(-c3ccccc3)c2n1
AC50 [2]: 25.1 µM (inconclusive)

CCOc1ncccc1C(=O)OCC(=O)N1CCc2ccccc21
IC50 [8]: 13.9 µM (active)

COC(=O)COc1ccc2c(=O)c(-c3ccccc3OC)coc2c1
IC50 [8]: 5.9 µM (active)

COC(=O)[C@@H]1C[C@H]1[C@@H](NC(=O)c1cc(C)on1)c1ccccc1
AC50 [7]: 31.6 µM (inconclusive)
AC50 [2]: 39.8 µM (inconclusive)

CNC(C)C(=O)NC(C(=O)N1CCCC1C(=O)NNc1ccccc1)C(C)C (centres undefined)
AC50 [5]: 2.17 µM (active)

C[C@@H]1CCCC(CC(=O)O)(CC(=O)O)C1
AC50 [3]: 0.631 µM (inconclusive)

C/C(=N\NC(=O)c1nnn(-c2nonc2N)c1CN1CCc2ccccc21)c1ccccc1O
AC50 [5]: 2.72 µM (active)
AC50 [9]: 1.98 µM (active)

CSc1ncnc2c1ncn2CCCNc1ccc(C)c(C)c1
IC50 [10]: 207 µM (active)

O=C(N/N=C/c1ccc(OC(=O)c2ccco2)cc1)c1ccccn1
IC50 [8]: 20.6 µM (active)

Oc1ccccc1/C=N/C1=NN(c2cccc(C(F)(F)F)c2)CC1
IC50 [10]: 16.9 µM (active)

N[C@@H](CCCP(=O)(O)O)C(=O)O
AC50 [3]: 31.6 µM (inconclusive)
